From ChEMBL document CHEMBL4406799, “Identification of benzo[cd]indol-2(1H)-ones as novel Atg4B inhibitors via a structure-based virtual screening and a novel AlphaScreen assay” (Eur J Med Chem, 2019)
Calls of active or inactive are those of the source. No cut-off for these calls is given here.

Columns and labels:
Cysteine protease ATG4B [1] = target: T1, Cysteine protease ATG4B (Homo sapiens, UniProt Q9Y4P1); experiment: Inhibition of ATG4B (unknown origin) using N-(His)6-LC3B(L123C)Biotin as substrate preincubated for 30 mins and measured after 1 hr by AlphaScreen method
T1 sequence (Q9Y4P1 whole entry): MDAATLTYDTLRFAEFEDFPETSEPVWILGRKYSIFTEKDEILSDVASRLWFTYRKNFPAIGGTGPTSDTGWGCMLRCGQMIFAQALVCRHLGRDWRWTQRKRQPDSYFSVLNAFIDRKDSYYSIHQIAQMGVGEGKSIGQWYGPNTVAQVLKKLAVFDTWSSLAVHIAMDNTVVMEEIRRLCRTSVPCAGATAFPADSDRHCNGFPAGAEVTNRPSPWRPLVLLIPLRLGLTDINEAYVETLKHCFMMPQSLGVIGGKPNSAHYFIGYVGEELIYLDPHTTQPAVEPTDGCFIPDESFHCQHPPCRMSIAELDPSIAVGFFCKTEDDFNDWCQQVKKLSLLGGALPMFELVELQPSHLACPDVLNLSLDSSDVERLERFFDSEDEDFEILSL

Papain (Carica papaya) = target: T2, Papain (Carica papaya) (UniProt P00784); experiment: Inhibition of papaya papain at 50 uM using L-pyroglutamyl-L-phenylalanyl-L-leucine-p-nitroanilide as substrate measured after 30 mins
T2 sequence (whole entry): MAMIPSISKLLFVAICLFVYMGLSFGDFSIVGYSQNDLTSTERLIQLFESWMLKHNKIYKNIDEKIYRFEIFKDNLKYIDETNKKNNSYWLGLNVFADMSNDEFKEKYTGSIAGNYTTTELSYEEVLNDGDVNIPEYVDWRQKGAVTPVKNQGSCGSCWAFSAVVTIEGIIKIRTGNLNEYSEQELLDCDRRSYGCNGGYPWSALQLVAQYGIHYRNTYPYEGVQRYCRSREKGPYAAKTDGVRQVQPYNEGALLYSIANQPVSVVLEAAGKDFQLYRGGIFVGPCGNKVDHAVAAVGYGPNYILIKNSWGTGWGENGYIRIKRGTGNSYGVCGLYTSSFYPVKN

Cysteine protease ATG4B [2] = target: T1, Cysteine protease ATG4B; experiment: Inhibition of ATG4B (unknown origin) using N-(His)6-LC3B(L123C) as substrate preincubated for 1 hr followed by substrate addition and measured after 30 mins MS-based analysis
Cysteine protease ATG4B [3] = target: T1, Cysteine protease ATG4B; experiment: Inhibition of recombinant ATG4B (unknown origin) expressed in Escherichia coli BL21(DE3) using LC3-PLA2 as substrate by fluoroscence based assay
HT-29 [4] = conditions: Homo sapiens, 100 to 200 uM
Description: Inhibition of autophagic flux in human HT-29 cells assessed as reduction in p62 degradation at 100 to 200 uM after 16 hrs by Western blot analysis

HT-29 [5] = conditions: Homo sapiens, 100 to 200 uM; remark: listed apart in the source
Description: Inhibition of autophagic flux in human HT-29 cells assessed as increase in LC3-2 expression at 100 to 200 uM after 16 hrs by Western blot analysis

HT-29 [6] = experiment: Antiproliferative activity against human HT-29 cells assessed as reduction in cell viability at 75 uM in presence of oxaliplatin after 24 to 72 hrs by MTT assay; format: functional, cell-based

SMILES	inhibition (Papain (Carica papaya))	IC50 (Cysteine protease ATG4B [1]; read-out: IC50) [µM]	IC50 (Cysteine protease ATG4B [2]) [µM]	also measured
C=CCCC(O)CNc1cc2c3c(cccc3c1)NC2=O (stereo unspecified)	–	–	–	IC50 (Cysteine protease ATG4B [1]): Not Active
O=C(N[C@@H](Cc1ccccc1)C(=O)CCl)OCc1ccccc1	Active	–	–	–
O=C(/C=C1/Nc2cc(Cl)c(Cl)cc2NC1=O)N/N=C/c1ccccc1O	–	315	–	–
O=C1Nc2cccc3cc(NCC(O)CCl)cc1c23 (stereo unspecified)	inactive	–	–	–
O=c1oc2c(O)c(O)cc3c(=O)oc4c(O)c(O)cc1c4c23 [ELLAGIC ACID]	–	–	–	IC50 (Cysteine protease ATG4B [3]): 3 µM
O=C1NC(=O)c2cc(NCC(O)CCl)cc3cccc1c23 (stereo unspecified)	–	–	–	IC50 (Cysteine protease ATG4B [1]): Not Active

The next lines start with results.

inhibition (Papain (Carica papaya))	IC50 (Cysteine protease ATG4B [1]; read-out: IC50) [µM]	IC50 (Cysteine protease ATG4B [2]) [µM]	SMILES	also measured
–	> 300	280	O=C1Nc2ccc(NCC(O)CCl)c3cccc1c23 (stereo unspecified)	–
–	300	150	Oc1ccc(C2=Nc3cccc4cccc(c34)N2)cc1	–
–	235	215	CCCCC(O)CNc1cc2c3c(cccc3c1)NC2=O (stereo unspecified)	–
inactive	–	–	CCCCC(O)CNc1cc2c3c(cccc3c1)C(=O)N2 (stereo unspecified)	inhibition (HT-29 [4]): Active; inhibition (HT-29 [5]): Active; Activity (HT-29 [6]): Active
